Common to all, as to assay type: cell-based
Assay [1] deals with SNU638 (gastric cancer). The assay can be described thus: SRB cell growth inhibition assay, SNU638. The conditions noted are these: Homo sapiens, SNU-638, 96 hours, read-out: concentration of the drug to inhibit the cell growth by 50%. An excerpt:
[Worded in the source for another cell line; this cell line is reported under the same test.] (§1) Measurement of the Growth Inhibition Ability Against Cancer Cells
(§2) Human cancer cell strains were obtained through the following paths: OVCAR-3 (ovarian cancer), MCF-7 (hormone dependent breast cancer), MDA-MB-231 (breast cancer), HeLa (cervical cancer), PC3 (prostate cancer), LNCap (prostate cancer), HepG2 (liver cancer), A549 (lung cancer), NCI-H226 (lung cancer), Caki-1 (kidney cancer), SK-MEL-28 (melanoma cancer), HT-29 (colorectal cancer), HCT116 (colorectal cancer) and PANC-1 (pancreas cancer) cells were purchased from American Type Culture Collection (ATCC) (Manassas, Va.); U251(brain tumor) cells were purchased from Riken Institutes, Marunouchi, Tokyo, Japan; MKN-45 (gastric cancer) cells were purchased from DSMZ (Germany); and UMRC2 (kidney cancer) cells were purchased from U.S. National Cancer Institute (Bethesda, Md.).
(§3) MDA-MB-231, HCT116, UMRC2, Caki-1 and PANC-1 cells were cultured in Dulbecco's modified Eagle's medium (“DMEM”, Invitrogen) including 10% FBS, 100 units/mL penicillin-streptomycin (P/S), 10 mM HEPES and 2 mM L-glutamine. All the other cell strains were cultured in RPMI1640 medium (Invitrogen, Carlsbad, Calif.) including 10% fetal bovine serum (FBS), 1 mM sodium pyruvate, 10 mM HEPES, and 100 units/mL penicillin-streptomycin (P/S). All cells were cultured at 37° C. 5% CO2 humid conditions.
(§4) The cell growth inhibition level of the novel compound synthesized using (1S,2R,5S)-5-(6-Aminopurine-9-yl)-4-fluoro-3-hydroxyethyl-cyclopent-3(4)-en-1,2-diol (compound of Formula 1 where X is NH2 and R2 is H) prepared in the above Example 3, (1S,2R,5S)-4-Fluoro-3-hydroxyethyl-5-(uracil-1-yl)-cyclopent-3(4)-en-1,2-diol (Compound 10) prepared in the above Example 4, (1S,2R,5S)-5-(Cytosine-1-yl)-4-fluoro-3-hydroxyethyl-cyclopent-3(4)-en-1,2-diol (Compound 11) prepared in the above Example 5, Fluoro-neplanocin A, and Homoneplanocin A was analyzed by SRB (sulphorhodamine B) assay according to the publicly known method in the literature.
(§5) Human cancer cell strains increased exponentially were divided into the 96-well plates at the density of 2×10^3 to 3×10^3 cells/well and processed with the compounds of the various concentrations in the present invention on the next day. 0.25% DMSO was used as a control group. Three experiments were performed for each process. The cells were fixed with 10% trichloro-acetic acid at 96 hours after processing with the compound and SRB analysis was carried out. Optical density was measured at 530 nm with Benchmark PlusMicroplate Reader (Bio-Rad Laboratories, Hercules, Calif.). The concentration of the drug to inhibit the cell growth by 50% […] was measured with Kaledia Graph (Synergy software, Reading, Pa.).

Assay [2] deals with PC-3 (prostate cancer). The assay can be described thus: SRB cell growth inhibition assay, PC-3. The note with it: Homo sapiens, 96 hours, read-out: concentration of the drug to inhibit the cell growth by 50%.
Excerpt: as §1, §2, §3, §4, §5

Assay [3] concerns T47D (breast cancer). As to the kind of experiment: SRB cell growth inhibition assay, T47D. The note with it: Homo sapiens, 96 hours, read-out: concentration of the drug to inhibit the cell growth by 50%.
Excerpt: [Worded in the source for another cell line; this cell line is reported under the same test.] as §1, §2, §3, §4, §5

The subject of assay [4] is HCT-116 (colorectal cancer). As to the kind of experiment: SRB cell growth inhibition assay, HCT-116. The conditions noted are these: Homo sapiens, 96 hours, read-out: concentration of the drug to inhibit the cell growth by 50%.
Excerpt: as §1, §2, §3, §4, §5

Assay [5] deals with A549 (lung cancer). As to the kind of experiment: SRB cell growth inhibition assay, A549. The conditions noted are these: Homo sapiens, 96 hours, read-out: concentration of the drug to inhibit the cell growth by 50%.
Excerpt: as §1, §2, §3, §4, §5

Assay [6] deals with K562 (blood cancer). The assay can be described thus: SRB cell growth inhibition assay, K562. The conditions noted are these: Homo sapiens, 96 hours, read-out: concentration of the drug to inhibit the cell growth by 50%.
Excerpt: [Worded in the source for another cell line; this cell line is reported under the same test.] as §1, §2, §3, §4, §5

Among the data in patent publication US9120760B2, “Fluoro-homoneplanocin A and nucleoside derivatives, method for the synthesis thereof, and the pharmaceutical compositions comprising the same as an active component for treatment of cancer” (EWHA UNIVERSITY—INDUSTRY COLLABORATION FOUNDATION, priority 2012, dated 2015) are IC50 values, retold here.

Each structure is given as a SMILES string.

For the compound `O=c1ccn([C@@H]2C(F)=C(CCO)[C@@H](O)[C@H]2O)c(=O)[nH]1` [Compound 10, (1S,2R,5S)-4-Fluoro-3-hydroxyethyl-5-(uracil-1-yl)-cyclopent-3(4)-en-1,2-diol], the IC50 in assay [1], in assay [2], in assay [3], in assay [4], in assay [5] and in assay [6] was above 10 µM each time.

Regarding `Nc1ccn([C@@H]2C(F)=C(CCO)[C@@H](O)[C@H]2O)c(=O)n1` [Compound 11, (1S,2R,5S)-5-(Cytosine-1-yl)-4-fluoro-3-hydroxyethyl-cyclopent-3(4)-en-1,2-diol], the IC50 in assay [1], in assay [2], in assay [3], in assay [4], in assay [5] and in assay [6] was above 10 µM in each case.

`Nc1ncnc2c1ncn2[C@@H]1C(F)=C(CCO)[C@@H](O)[C@H]1O` [Compound of Formula 1, (1S,2R,5S)-5-(6-Aminopurine-9-yl)-4-fluoro-3-hydroxyethyl-cyclopent-3(4)-en-1,2-diol]: the IC50 in assay [1] turned out to be 0.37 µM; in assay [2], 2.39 µM; in assay [3], 2.83 µM; in assay [4], 1.1 µM; in assay [5], 0.62 µM; in assay [6], 0.13 µM.

`Nc1ncnc2c1ncn2C1C(F)=C(CO)C(O)C1O` (stereo not drawn) [Fluoro-neplanocin A, reference compound]: the IC50 in assay [1] amounted to 1.3 µM; in assay [2] it was 3.1 µM; in assay [3] it was 3.6 µM; in assay [4] it was 1.4 µM; in assay [5], 2.6 µM; in assay [6], 2.2 µM.

For the compound `Nc1ncnc2c1ncn2C1C=C(CCO)C(O)C1O` (stereo not drawn) [Homoneplanocin A], the IC50 in assay [1], in assay [2], in assay [3], in assay [4], in assay [5] and in assay [6] was above 10 µM each time.
